Patent US5684151A, “1-arylsulphonyl, arylcarbonyl and 1-arylphosphonyl-3-phenyl-1,4,5,6-tetrahydropyridazines” (priority 1995, dated 1997)
pIC50: −log10 of the molar value. Where two headings read alike, the source gives them in different places.

Experiments:
[1] = biological target: T1, progestin receptor from rabbit uterus (Oryctolagus cuniculus, UniProt P06186); experiment: Progestin receptor binding (3H-R5020 displacement); details: rabbit uterine cytosol, 4° C., 18 h, read-out: IC50: Binding affinity for the progestin receptor from rabbit uterus
T1 construct: Cytosolic progestin receptor were obtained by mixing rabbit uterine tissue with a Tris buffer; from tissue; host or cells: rabbit uterus cytosol
Procedure: A progestin initiates a biological response by first binding to a progestin receptor. Affinity for progestin receptors was determined by measuring the ability of compounds to displace a progestin radioligand from those receptors in vitro. Cytosolic progestin receptor were obtained by mixing rabbit uterine tissue with a Tris buffer [0.1M Tris-Hcl, 1 mM Na2 EDTA, 1 mM dithiothreotol, 1 mM sodium molybdate, 1% glycerol, pH 7.4]. The tissue/buffer mixture was homogenized under ice-cold conditions. The homogenate was then centrifuged and the supernatant (cytosol preparation) was decanted and stored at -70° C. and thawed prior to use. The competitive binding assay was performed by mixing ^3 H-R5020, a progestin radioligand, with cytosol preparation and various concentrations of test compounds (prepared in DMSO with a final 5% DMSO concentration). This mixture was then incubated at 4° C. for about 18 hours. Non-specific binding was determined using an unlabelled ligand in excess. After the incubation period, the radioligand bound to receptor was separated from free radioligand using dextran-coated charcoal. The amount of bound radioligand was then determined by liquid scintillation counting. The data were expressed as the concentration of test compound that displaced 50% of the radioligand from the receptor (IC50)
Aspects of the application used in this procedure are described in the following: J. L. McGuire et al., Biochemistry 13, 319, 1974.

[2] = tested on: mouse (MC3T3-E1) and human (TE-85) osteoblast-line cells; type: cell-based
Procedure, shortened: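 Proliferation was read as ^3H-thymidine (0.4 μCi) uptake during a 4 h pulse, which started 20 h after compound addition. Before dosing, cells sat 24 h in 0.1% FBS. Values are % times control (100%).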

T1 sequence (P06186 whole entry): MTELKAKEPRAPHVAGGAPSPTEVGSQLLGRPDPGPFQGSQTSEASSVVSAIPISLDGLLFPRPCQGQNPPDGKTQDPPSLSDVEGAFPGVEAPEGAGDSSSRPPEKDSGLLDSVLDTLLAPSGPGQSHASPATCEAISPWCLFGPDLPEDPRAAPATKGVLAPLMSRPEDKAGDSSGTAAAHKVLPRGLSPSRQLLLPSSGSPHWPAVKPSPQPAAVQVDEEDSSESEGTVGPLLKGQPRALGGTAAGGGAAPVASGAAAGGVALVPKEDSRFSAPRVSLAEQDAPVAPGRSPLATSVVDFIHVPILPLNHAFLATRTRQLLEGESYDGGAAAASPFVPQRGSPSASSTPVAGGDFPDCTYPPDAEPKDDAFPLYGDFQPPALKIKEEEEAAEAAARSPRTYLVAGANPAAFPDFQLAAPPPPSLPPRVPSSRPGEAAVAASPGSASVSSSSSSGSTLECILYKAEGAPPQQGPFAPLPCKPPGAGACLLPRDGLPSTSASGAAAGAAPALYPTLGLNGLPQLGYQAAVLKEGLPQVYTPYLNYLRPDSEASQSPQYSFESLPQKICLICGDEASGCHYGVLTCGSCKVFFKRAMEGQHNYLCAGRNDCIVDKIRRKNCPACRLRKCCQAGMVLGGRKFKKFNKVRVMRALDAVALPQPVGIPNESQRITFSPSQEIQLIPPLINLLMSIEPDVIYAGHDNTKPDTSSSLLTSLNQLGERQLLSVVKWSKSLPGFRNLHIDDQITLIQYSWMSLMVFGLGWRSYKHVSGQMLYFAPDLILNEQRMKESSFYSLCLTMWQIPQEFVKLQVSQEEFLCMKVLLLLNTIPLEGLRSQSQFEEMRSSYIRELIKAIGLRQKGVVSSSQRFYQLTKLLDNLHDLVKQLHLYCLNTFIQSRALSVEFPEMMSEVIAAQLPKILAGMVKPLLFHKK

Row | SMILES | pIC50 [1] | Osteoblast Cell Proliferation, 3H-thymidine incorporation vs control (100%) ([2]; 10^-6) [%] | Osteoblast Cell Proliferation, 3H-thymidine incorporation vs control (100%) ([2]; 10^-7) [%] | Osteoblast Cell Proliferation, 3H-thymidine incorporation vs control (100%) ([2]; 10^-8) [%] | Osteoblast Cell Proliferation, 3H-thymidine incorporation vs control (100%) ([2]; 10^-9) [%] | Osteoblast Cell Proliferation, 3H-thymidine incorporation vs control (100%) ([2]; 10^-10) [%]
1 | COC(=O)c1ccccc1S(=O)(=O)N1CCCC(c2ccc(Cl)c(Cl)c2)=N1 [Compound 47] | 7.70 | 109 | 112 | 113 | 115 | 123
2 | O=S(=O)(c1ccc2ccccc2c1)N1CCCC(c2ccc(F)cc2)=N1 [Compound 25] | 7.31 | 87 | 106 | 101 | 99 | 90
3 | O=S(=O)(c1c(F)c(F)c(F)c(F)c1F)N1CCCC(c2ccc(F)cc2)=N1 [Compound 152, 3-(4-Fluorophenyl)-1-(pentafluorobenzenesulfonyl)-1,4,5,6-tetrahydropyridazine] | 6.76 | 87 | 123 | 124 | 149 | 161
4 | O=[N+]([O-])c1ccc(S(=O)(=O)N2CCCC(c3ccc(F)cc3)=N2)cc1 [Compound 10] | 5.98 | 91 | 90 | 123 | 115 | 139
5 | Cc1ccc(S(=O)(=O)N2N=C(c3cccc(Br)c3)CC3C4C5C=CC(C5)C4CC32)cc1 (centres unmarked) [Compound 161, 1,4,4a,9a-Tetrahydro-1-(4-methylbenzenesulfonyl)-3-(3bromophenyl)bicyclo[2.2.1]hept-7-enyl[5.6-a]cyclopenta[1.2-e]pyridazine] | 5.52 | 76 | 95 | 113 | 122 | 112
6 | O=[N+]([O-])c1ccc(S(=O)(=O)N2CCCC(c3ccc(Cl)c(Cl)c3)=N2)cc1 [Compound 38] | 8.28 | 76 | 73 | 54 | 49 | 37
7 | O=P(OC1CCCC1)(c1ccccc1)N1CCCC(c2ccc(Cl)c(Cl)c2)=N1 (centres unmarked) [Compound 257] | 6.52 | 86 | 114 | 122 | 112 | 114
8 | O=C(c1ccc([N+](=O)[O-])cc1)N1CCCC(c2ccc(Cl)cc2)=N1 [Compound 202] | 6.55 | 98 | 108 | 110 | 116 | 128
9 | O=S(=O)(c1ccc2ccccc2c1)N1CCCC(c2cccc(Cl)c2)=N1 [Compound 94] | 7.84 | 110 | 85 | 90 | 110 | 130
10 | O=S(=O)(c1cc(Cl)ccc1Cl)N1CCCC(c2ccc3c(c2)CCCC3)=N1 [Compound 89] | 7.67 | 115 | 97 | 113 | 106 | 98
11 | CCCCc1ccc(C2=NN(S(=O)(=O)c3ccc(I)cc3)CCC2)cc1 [Compound 71] | 5.00 | 110 | 114 | 99 | 103 | 98
12 | Cc1ccc(S(=O)(=O)N2N=C(c3ccccc3)CC3C4C5C=CC(C5)C4CC32)cc1 (centres unmarked) [Compound 157, 1,4,4a,9a-Tetrahydro-1-(4-methylbenzenesulfonyl)-3-phenyl-bicyclo[2.2.1]hept-7-enyl[5.6-a]cyclopenta-[1.2-e]pyridazine] | 6.12 | 107 | 108 | 113 | 111 | 128
13 | O=C(c1cccc(Cl)c1)N1CCCC(c2ccc(Cl)cc2)=N1 [Compound 199] | 4.00 | 105 | 104 | 96 | 83 | 61
14 | CC(C)(C)c1ccc(C(=O)N2CCCC(c3ccccc3)=N2)cc1 [Compound 197] | 4.00 | 87 | 89 | 91 | 81 | 52
15 | COc1ccc(C2=NN(S(=O)(=O)c3ccc4ccccc4c3)CCC2)cc1 [Compound 65] | 7.24 | 90 | 98 | 94 | 88 | 80
16 | O=S(=O)(c1ccc(Br)cc1)N1CCCC(c2ccc(Cl)cc2)=N1 [Compound 13] | 8.05 | 88 | 109 | 114 | 109 | 152
17 | O=C(c1ccc(Cl)c(Cl)c1)N1CCCC(c2ccc(Cl)c(Cl)c2)=N1 [Compound 216] | 6.99 | 105 | 108 | 105 | 96 | 100
18 | O=S(=O)(c1ccc(I)cc1)N1CCCC(c2ccc3c(c2)CCCC3)=N1 [Compound 113] | 7.56 | 66 | 94 | 102 | 102 | 90
19 | CC(=O)Nc1ccc(S(=O)(=O)N2CCCC(c3ccc(Cl)cc3)=N2)cc1 [Compound 154] | 6.09 | 97 | 111 | 107 | 124 | 115
20 | CC1CC(c2ccccc2)=NN(S(=O)(=O)c2cc(Cl)ccc2Cl)C1 (centres unmarked) [Compound 144] | 7.14 | – | 112 | 122 | 117 | 108
21 | COc1ccc(C2=NN(S(=O)(=O)c3ccc(C)cc3)CCC2)cc1 [Compound 3] | 5.00 | 92 | 110 | 115 | 138 | 118
